Measurements from patent publication US20230250055A1, “PROCESS OF MAKING N,N-DIACETYL-L-CYSTINE DISODIUM SALT FROM CYSTINE AND ACETYL CHLORIDE IN METHANOL IN THE PRESENCE OF SODIUM HYDROXIDE” (Conopco, Inc., d/b/a UNILEVER, priority 2020, published 2023).

Assays:
skin cells = assay: potentiating glutathione synthesis within skin cells; assay type: cell-based; details: compared with cystine
[1] = solubility of NDAC relative to cystine; assay type: physicochemical
[2] = organic solvents such as alcohols, ethers, esters, ketones; cited from earlier work

Row | SMILES | performance for potentiating glutathione synthesis within skin cells (skin cells) | solubility compared with cystine [1] | solubility in organic solvents [2]
1 | CC(=O)N[C@@H](CSSC[C@H](NC(C)=O)C(=O)O)C(=O)O [NDAC, N,N′-diacetyl-L-cystine] | comparable to that of cystine | more soluble | –
2 | N[C@@H](CSSC[C@H](N)C(=O)O)C(=O)O [cystine, L-Cystine] | – | – | practically insoluble
